Patent publication US20240067621A1, “POLYFLUORINATED CANNABINOID AND CANNABINOID-LIKE COMPOUNDS AND METHODS OF SYNTHESIS AND USE THEREOF” (The Board of Regents For The Oklahoma Agricultural And …, priority 2021, published 2024)

System: not given
Details: not given
In the case of `CC1=CC(c2c(F)c(F)c(C#N)c(F)c2F)C(C#N)=CC1` (centres unmarked), the melting point is reported as 117 to 120 °C.
`COC(=O)C1=CCC(C)=CC1c1c(F)c(F)nc(F)c1F` (centres unmarked) showed a melting point of 93 to 96 °C.
`COC(=O)C1=CCC(C)=CC1c1c(F)c(F)c(C(F)(F)F)c(F)c1F` (centres unmarked) showed a melting point of 104 to 105 °C.
`COC(=O)C1=CCC(C)=CC1c1c(F)c(F)c(C(=O)OC)c(F)c1F` (centres unmarked) showed a melting point of 91 to 95 °C.
Molecule `COC(=O)C1=CCC(C(C)(C)C)=CC1c1c(F)c(F)c(C#N)c(F)c1F` (centres unmarked) has a melting point of 108 to 110 °C.
`COC(=O)C1=CCC(C(C)(C)C)=CC1c1c(F)c(F)nc(F)c1F` (centres unmarked) gave a melting point of 59 to 60 °C.
`COC(=O)C1=CCC(OC(=O)OC(C)(C)C)=CC1c1c(F)c(F)c(C#N)c(F)c1F` (centres unmarked) showed a melting point of 104 to 105 °C.

System: cannabinoid receptors
Details: natural (trans) THC versus its cis counterpart; cited from earlier work
For `CCCCCc1cc(O)c2c(c1)OC(C)(C)[C@@H]1CCC(C)=C[C@@H]21` [THC, trans-Δ^9 -tetrahydrocannabinol], the “affinity for cannabinoid receptors” value is listed as “higher affinity”.
